# Data taken from US8754216B2, “NK1 antagonists” (OPKO Health, Inc., priority 2004, dated 2014).
# Biological target: NK1 receptor (Homo sapiens, UniProt P25103)
# Test: NK1 receptor binding: inhibition of Substance P binding, Ki by Chang-Prusoff equation
# Details: affinity for the NK1 receptor
# Source text: The in vitro and in vivo NK1, NK2 and NK3 activities of the compounds of Formula I can be determined by various procedures known in the art, such as a test for their ability to inhibit the activity of the NK1 agonist Substance P. The percent inhibition of neurokinin agonist activity is the difference between the percent of maximum specific binding (“MSB”) and 100%. The percent of MSB is defined by the following equation, wherein “dpm” represents “disintegrations per minute”:
# [formula] The concentration at which the compound produces 50% inhibition of binding is then used to determine an inhibition constant (“Ki”) using the Chang-Prusoff equation.
# The activities (potencies) for the compounds of the invention are determined by measuring their Ki values. […] Even more preferred are compounds having average Ki values of from 0.1 nM to about 5 nM for the NK1 receptor. Especially preferred compounds have […], average Ki values of from 0.1 nM to about 1 nM. Even more especially preferred compounds have NK1 average Ki values of from 0.1 nM to about 0.3 nM.
# NK1 receptor, sequence (P25103 whole entry, species assumed): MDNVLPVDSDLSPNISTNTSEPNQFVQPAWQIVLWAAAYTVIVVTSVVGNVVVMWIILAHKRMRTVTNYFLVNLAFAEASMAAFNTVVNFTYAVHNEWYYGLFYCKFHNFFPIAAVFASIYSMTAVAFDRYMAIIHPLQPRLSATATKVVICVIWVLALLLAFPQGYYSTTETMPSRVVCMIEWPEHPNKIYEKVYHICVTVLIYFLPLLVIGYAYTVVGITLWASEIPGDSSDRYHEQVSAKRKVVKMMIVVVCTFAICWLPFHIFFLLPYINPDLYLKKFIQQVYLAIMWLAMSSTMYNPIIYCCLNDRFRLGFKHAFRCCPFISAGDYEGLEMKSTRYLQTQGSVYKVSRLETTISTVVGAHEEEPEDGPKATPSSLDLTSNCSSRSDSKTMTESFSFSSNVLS
row,SMILES,Ki
1,C[C@@H](OC[C@@]1(c2ccccc2)CC[C@](C#N)(N2CCOC2=O)CN1)c1cc(C(F)(F)F)cc(C(F)(F)F)c1 [Compound 2],0.12 nM
2,C[C@@H](OC[C@@]1(c2ccccc2)CC[C@](C#N)(N2CCC2=O)CN1)c1cc(C(F)(F)F)cc(C(F)(F)F)c1 [Compound 9],0.18 nM
3,CCNC(=O)C[C@]1(n2cn[nH]c2=O)CC[C@@](CO[C@H](C)c2cc(C(F)(F)F)cc(C(F)(F)F)c2)(c2ccccc2)NC1 [Compound 16],0.13 nM
4,C[C@@H](OC[C@@]1(c2ccccc2)CC[C@](CO)(n2cn[nH]c2=O)CN1)c1cc(C(F)(F)F)cc(C(F)(F)F)c1 [Compound 23],0.12 nM
5,C[C@@H](OC[C@@]1(c2ccccc2)CC[C@](CC(N)=O)(n2cn[nH]c2=O)CN1)c1cc(C(F)(F)F)cc(C(F)(F)F)c1 [Compound 29],0.11 nM
6,CC(=O)C[C@]1(n2cn[nH]c2=O)CC[C@@](CO[C@H](C)c2cc(C(F)(F)F)cc(C(F)(F)F)c2)(c2ccccc2)NC1 [Compound 30],0.54 nM
7,C[C@@H](OC[C@@]1(c2ccccc2)CC[C@](C#N)(n2cn[nH]c2=O)CN1)c1cc(C(F)(F)F)cc(C(F)(F)F)c1 [Compound 42],0.28 nM
8,C/C(=N\O)[C@]1(n2cn[nH]c2=O)CC[C@@](CO[C@H](C)c2cc(C(F)(F)F)cc(C(F)(F)F)c2)(c2ccccc2)NC1 [Compound 54],0.12 nM

# Further lines, results first:
row,Ki,SMILES
1,0.1 nM,C[C@@H](OC[C@@]1(c2ccccc2)CC[C@@](C(N)=O)(n2cnnc2)CN1)c1cc(C(F)(F)F)cc(C(F)(F)F)c1 [Compound 10]
2,0.05 nM,C[C@@H](OC[C@@]1(c2ccccc2)CC[C@@](CO)(n2cnnc2)CN1)c1cc(C(F)(F)F)cc(C(F)(F)F)c1 [Compound 12]
3,0.1 nM,COC[C@@]1(n2cnnc2)CC[C@@](CO[C@H](C)c2cc(C(F)(F)F)cc(C(F)(F)F)c2)(c2ccccc2)NC1 [Compound 14]
4,0.1 nM,CCC(=O)[C@]1(n2cn[nH]c2=O)CC[C@@](CO[C@H](C)c2cc(C(F)(F)F)cc(C(F)(F)F)c2)(c2ccccc2)NC1 [Compound 19]
5,0.11 nM,COC[C@]1(N2CC(=O)NC2=O)CC[C@@](CO[C@H](C)c2cc(C(F)(F)F)cc(C(F)(F)F)c2)(c2ccccc2)NC1 [Compound 20]
